# From US20080200454A1, “CARBON-LINKED TETRAHYDRO-PYRAZOLO-PYRIDINE MODULATORS OF CATHEPSIN S” (priority 2007, published 2008)
# Molecular target: Recombinant human cathepsin S (CatS) (Homo sapiens, UniProt P25774)
# Experiment: Recombinant human cathepsin S (CatS) inhibition assay, fluorogenic substrate Z-Valine-Valine-Arginine-AMC;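 also: Baculovirus-expressed CatS in pH 5.0 sodium acetate buffer with DTT and NaCl, fluorescence read each minute over 20 min, inhibition derived from rate slope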
# Conditions: not given
# Sequence of Recombinant human cathepsin S (CatS) (P25774 115-331): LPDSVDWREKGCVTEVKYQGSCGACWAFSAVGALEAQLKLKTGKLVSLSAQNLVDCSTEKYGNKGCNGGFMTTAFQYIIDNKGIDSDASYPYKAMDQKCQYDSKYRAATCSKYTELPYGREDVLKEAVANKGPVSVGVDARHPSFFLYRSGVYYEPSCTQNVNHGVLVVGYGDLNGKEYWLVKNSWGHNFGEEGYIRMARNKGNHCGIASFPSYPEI
row,IC50,SMILES
1,0.04 µM,"CS(=O)(=O)N1CCc2c(c(-c3ccc(C(F)(F)F)c(C#Cc4ccc(Cl)cc4)c3)nn2CC(O)CN2CCC(N3CCCC3=O)CC2)C1 (centres unmarked) [Example 116, 1-[1-(3-{3-[3-(4-Chloro-phenylethynyl)-4-trifluoromethyl-phenyl]-5-methanesulfonyl-4,5,6,7-tetrahydro-pyrazolo[4,3-c]pyridin-1-yl}-2-hydroxy-propyl)-piperidin-4-yl]-pyrrolidin-2-one]"
2,0.03 µM,"CC(=O)N1CCC(C2CCN(C[C@H](O)Cn3nc(-c4ccc(Cl)c(C#Cc5ccc(Cl)cc5)c4)c4c3CCN(S(C)(=O)=O)C4)CC2)CC1 [Example 241, (2S)-1-(1′-Acetyl-4,4′-bipiperidin-1-yl)-3-[3-{4-chloro-3-[(4-chlorophenyl)ethynyl]phenyl}-5-(methylsulfonyl)-4,5,6,7-tetrahydro-1H-pyrazolo[4,3-c]pyridin-1-yl]propan-2-ol]"
3,0.12 µM,"CS(=O)(=O)N1CCc2c(c(-c3ccc(Cl)c(C#Cc4ccc(Cl)cc4)c3)nn2CC(O)CN2CCCC2)C1 (centres unmarked) [Example 129, 1-{3-[4-Chloro-3-(4-chloro-phenylethynyl)-phenyl]-5-methanesulfonyl-4,5,6,7-tetrahydro-pyrazolo[4,3-c]pyridin-1-yl}-3-pyrrolidin-1-yl-propan-2-ol]"
4,0.27 µM,"COC(=O)C1Cc2cc(C#Cc3cc(-c4nn(CCCN5CCOCC5)c5c4CN(S(C)(=O)=O)CC5)ccc3Cl)ccc2CN1 (centres unmarked) [Example 205, Methyl 6-({2-chloro-5-[5-(methylsulfonyl)-1-(3-morpholin-4-ylpropyl)-4,5,6,7-tetrahydro-1H-pyrazolo[4,3-c]pyridin-3-yl]phenyl}ethynyl)-1,2,3,4-tetrahydroisoquinoline-3-carboxylate]"
5,0.16 µM,"CC(C)(C)OC(=O)N1CCN(CC(O)Cn2nc(-c3ccc(Cl)c(C#Cc4ccc(Cl)cc4)c3)c3c2CCN(S(C)(=O)=O)C3)CC1 (centres unmarked) [Example 131, 4-(3-{3-[4-Chloro-3-(4-chloro-phenylethynyl)-phenyl]-5-methanesulfonyl-4,5,6,7-tetrahydro-pyrazolo[4,3-c]pyridin-1-yl}-2-hydroxy-propyl)-piperazine-1-carboxylic acid tert-butyl ester]"
6,2.04 µM,"CC1CCCN(CCCCc2cc(-c3nn(CCCN4CCC(N5CCCC5=O)CC4)c4c3CN(S(C)(=O)=O)CC4)ccc2Cl)C1 (centres unmarked) [Example 111, 1-{1-[3-(3-{4-Chloro-3-[4-(3-methyl-piperidin-1-yl)-butyl]-phenyl}-5-methanesulfonyl-4,5,6,7-tetrahydro-pyrazolo[4,3-c]pyridin-1-yl)-propyl]-piperidin-4-yl}-pyrrolidin-2-one]"
7,0.57 µM,"COC(=O)C1Cc2cc(C#Cc3cc(-c4nn(CCCN5CCOCC5)c5c4CN(S(C)(=O)=O)CC5)ccc3Cl)ccc2CN1C(=O)OC(C)(C)C (centres unmarked) [Example 203, 2-(1,1-Dimethylethyl) 3-methyl 6-({2-chloro-5-[5-(methylsulfonyl)-1-(3-morpholin-4-ylpropyl)-4,5,6,7-tetrahydro-1H-pyrazolo[4,3-c]pyridin-3-yl]phenyl}ethynyl)-3,4-dihydroisoquinoline-2,3(1H)-dicarboxylate]"
8,7.1 µM,"CS(=O)(=O)N1CCc2c(c(-c3ccc(Cl)c(CCCNS(=O)(=O)c4ccc(Cl)cc4)c3)nn2CCCN2CCOCC2)C1 [Example 83, 4-Chloro-N-(3-{2-chloro-5-[5-methanesulfonyl-1-(3-morpholin-4-yl-propyl)-4,5,6,7-tetrahydro-1H-pyrazolo[4,3-c]pyridin-3-yl]-phenyl}-propyl)-benzenesulfonamide]"
9,0.03 µM,"CC(C)(O)CNCc1cc(C#Cc2cc(-c3nn(CCCN4CCSCC4)c4c3CN(C(=O)C(N)=O)CC4)ccc2Cl)ccc1Cl [Example 562, 2-[3-{4-Chloro-3-[(4-chloro-3-{[(2-hydroxy-2-methylpropyl)amino]methyl}phenyl)ethynyl]phenyl}-1-(3-thiomorpholin-4-ylpropyl)-1,4,6,7-tetrahydro-5H-pyrazolo[4,3-c]pyridin-5-yl]-2-oxoacetamide]"
10,0.27 µM,"CS(=O)(=O)NCc1ccc(C#Cc2cc(-c3nn(CCCN4CCOCC4)c4c3CN(S(C)(=O)=O)CC4)ccc2Cl)cc1 [Example 70, N-(4-{2-Chloro-5-[5-methanesulfonyl-1-(3-morpholin-4-yl-propyl)-4,5,6,7-tetrahydro-1H-pyrazolo[4,3-c]pyridin-3-yl]-phenylethynyl}-benzyl)-methanesulfonamide]"
11,0.23 µM,"COc1ccc(CNCc2ccc(C#Cc3cc(-c4nn(CCCN5CCOCC5)c5c4CN(S(C)(=O)=O)CC5)ccc3Cl)cc2)cc1 [Example 339, 1-[4-({2-Chloro-5-[5-(methylsulfonyl)-1-(3-morpholin-4-ylpropyl)-4,5,6,7-tetrahydro-1H-pyrazolo[4,3-c]pyridin-3-yl]phenyl}ethynyl)phenyl]-N-{[4-(methyloxy)phenyl]methyl}methanamine]"
12,5.47 µM,"CS(=O)(=O)N1CCc2c(c(-c3ccc(Cl)c(CCCNS(=O)(=O)Cc4ccccc4)c3)nn2CCCN2CCOCC2)C1 [Example 81, N-(3-{2-Chloro-5-[5-methanesulfonyl-1-(3-morpholin-4-yl-propyl)-4,5,6,7-tetrahydro-1H-pyrazolo[4,3-c]pyridin-3-yl]-phenyl}-propyl)-C-phenyl-methanesulfonamide]"

# Same assay, conditions: CatS IC50
row,SMILES,IC50
1,"CS(=O)(=O)N1CCc2c(c(-c3ccc(Cl)c(C#Cc4ccc(CNCc5ccc(Cl)cc5)cc4)c3)nn2CCCN2CCS(=O)(=O)CC2)C1 [Example 398, 1-{4-[(2-Chloro-5-{1-[3-(1,1-dioxidothiomorpholin-4-yl)propyl]-5-(methylsulfonyl)-4,5,6,7-tetrahydro-1H-pyrazolo[4,3-c]pyridin-3-yl}phenyl)ethynyl]phenyl}-N-[(4-chlorophenyl)methyl]methanamine]",0.38 µM
2,"CS(=O)(=O)N1CCc2c(c(-c3ccc(Cl)c(C#Cc4cccc(CNCc5ccc(Cl)cc5)c4)c3)nn2CCCN2CCOCC2)C1 [Example 438, 1-[3-({2-Chloro-5-[5-(methylsulfonyl)-1-(3-morpholin-4-ylpropyl)-4,5,6,7-tetrahydro-1H-pyrazolo[4,3-c]pyridin-3-yl]phenyl}ethynyl)phenyl]-N-[(4-chlorophenyl)methyl]methanamine]",0.72 µM
3,"CS(=O)(=O)N1CCc2c(c(-c3ccc(Cl)c(C#CC4CCCCC4)c3)nn2CCCN2CCOCC2)C1 [Example 48, 3-(4-Chloro-3-cyclohexylethynyl-phenyl)-5-methanesulfonyl-1-(3-morpholin-4-yl-propyl)-4,5,6,7-tetrahydro-1H-pyrazolo[4,3-c]pyridine]",6.75 µM
4,"CN1CCN(C(=O)[C@@H]2Cc3ccc(C#Cc4cc(-c5nn(CCCN6CCOCC6)c6c5CN(S(C)(=O)=O)CC6)ccc4Cl)cc3CN2)CC1 [Example 485, (3S)-7-({2-Chloro-5-[5-(methylsulfonyl)-1-(3-morpholin-4-ylpropyl)-4,5,6,7-tetrahydro-1H-pyrazolo[4,3-c]pyridin-3-yl]phenyl}ethynyl)-3-[(4-methylpiperazin-1-yl)carbonyl]-1,2,3,4-tetrahydroisoquinoline]",0.05 µM
5,"CS(=O)(=O)N1CCc2c(c(-c3ccc(Cl)c(C#Cc4ccc(F)c(CNCc5ccccc5)c4)c3)nn2CCCN2CCOCC2)C1 [Example 290, 1-[5-({2-Chloro-5-[5-(methylsulfonyl)-1-(3-morpholin-4-ylpropyl)-4,5,6,7-tetrahydro-1H-pyrazolo[4,3-c]pyridin-3-yl]phenyl}ethynyl)-2-fluorophenyl]-N-(phenylmethyl)methanamine]",0.21 µM
6,"CS(=O)(=O)N1CCc2c(c(-c3ccc(Cl)c(C#Cc4cccc(CNc5ccccc5)c4)c3)nn2CCCN2CCOCC2)C1 [Example 511, N-{[3-({2-Chloro-5-[5-(methylsulfonyl)-1-(3-morpholin-4-ylpropyl)-4,5,6,7-tetrahydro-1H-pyrazolo[4,3-c]pyridin-3-yl]phenyl}ethynyl)phenyl]methyl}aniline]",1.61 µM
7,"NC(=O)N1CCc2c(c(-c3ccc(Cl)c(C#Cc4cccc(CNCc5ccc(Cl)cc5)c4)c3)nn2CCCN2CCSCC2)C1 [Example 171, 3-(4-Chloro-3-{[3-({[(4-chlorophenyl)methyl]amino}methyl)phenyl]ethynyl}phenyl)-1-(3-thiomorpholin-4-ylpropyl)-1,4,6,7-tetrahydro-5H-pyrazolo[4,3-c]pyridine-5-carboxamide]",0.2 µM
8,"CS(=O)(=O)N1CCc2c(c(-c3ccc(Cl)c(CCc4cccc(CNCc5ccccc5)c4)c3)nn2CCCN2CCOCC2)C1 [Example 535, 1-[3-(2-{2-Chloro-5-[5-(methylsulfonyl)-1-(3-morpholin-4-ylpropyl)-4,5,6,7-tetrahydro-1H-pyrazolo[4,3-c]pyridin-3-yl]phenyl}ethyl)phenyl]-N-(phenylmethyl)methanamine]",0.64 µM
9,"CS(=O)(=O)N1CCc2c(c(-c3ccc(Cl)c(C#Cc4ccc(CNC5CC5)cc4)c3)nn2CCCN2CCOCC2)C1 [Example 323, N-{[4-({2-Chloro-5-[5-(methylsulfonyl)-1-(3-morpholin-4-ylpropyl)-4,5,6,7-tetrahydro-1H-pyrazolo[4,3-c]pyridin-3-yl]phenyl}ethynyl)phenyl]methyl}cyclopropanamine]",0.75 µM
10,"NC(=O)C(=O)N1CCc2c(c(-c3ccc(Cl)c(C#Cc4ccc(CNCc5ccc(Cl)cc5)cc4)c3)nn2C[C@H](O)CN2CCOCC2)C1 [Example 254, (R)-2-[3-(4-Chloro-3-{4-[(4-chloro-benzylamino)-methyl]-phenylethynyl}-phenyl)-1-(2-hydroxy-3-morpholin-4-yl-propyl)-1,4,6,7-tetrahydro-pyrazolo[4,3-c]pyridin-5-yl]-2-oxo-acetamide]",0.24 µM
11,"CS(=O)(=O)N1CCc2c(c(-c3ccc(Cl)c(C#Cc4ccc(CNCC(F)(F)F)cc4)c3)nn2CCCN2CCC(N3CCCC3=O)CC2)C1 [Example 348, 1-(1-{3-[3-{4-Chloro-3-[(4-{[(2,2,2-trifluoroethyl)amino]methyl}phenyl)ethynyl]phenyl}-5-(methylsulfonyl)-4,5,6,7-tetrahydro-1H-pyrazolo[4,3-c]pyridin-1-yl]propyl}piperidin-4-yl)pyrrolidin-2-one]",0.1 µM
